Laboratory results: US20070128217A1 (priority 2003, published 2007)

Legend:
[1] = test system: rabbit serum obtained by immunizing a rabbit with the SARS-CoV strain Frankfurt 1; format: binding; parameters: Binding of a rabbit serum to linear peptides / Binding of a rabbit serum to looped peptides / Rabbit serum linear peptides / Rabbit serum looped peptides / Binding of a rabbit serum to linear peptides of protein N of SARS-CoV Urbani (Rabbit serum linear peptides) / Binding of a rabbit serum to looped/cyclic peptides of protein N of SARS-CoV Urbani (Rabbit serum looped peptides): unit not given here
[2] = test system: control sera (pooled serum of ten healthy LUMC hospital workers; commercial negative donor pooled serum from the Dutch bloodbank); format: binding, human; parameters: Binding of Control serum LUMC to linear peptides / Binding of Control serum Blood-bank to linear peptides / Binding of Control serum LUMC to looped peptides / Binding of Control Serum Blood-Bank to Looped peptides / Binding of Control serum LUMC to linear peptides of the protein M of SARS-CoV Urbani / Binding of Control serum Blood-bank to linear peptides of the protein M of SARS-CoV Urbani / Binding of Control serum LUMC to looped peptides of the protein M of SARS-CoV Urbani / Binding of Control Serum Blood-Bank to Looped peptides of the protein M of SARS-CoV Urbani: unit not given here
[3] = test system: antibodies in sera from SARS patients (sera 1a, 1b, 2, 6, 37, 62, London, SARS-yellow, SARS-green); format: binding, human; parameters: Binding of serum 6 to linear peptides of protein X1 of SARS-CoV Urbani / Binding of serum 37 to linear peptides of protein X1 of SARS-CoV Urbani / Binding of serum 6 to looped/cyclic peptide (PEPSCAN-ELISA) / Binding of serum 37 to looped/cyclic peptide (PEPSCAN-ELISA) / Binding of serum 37 to looped/cyclic peptides of protein X1 of SARS-CoV Urbani / Binding of serum 6 to linear peptides of protein X2 / Binding of serum 37 to linear peptides of protein X2 / Binding of serum 37 to looped/cyclic peptides of protein X2 of SARS-CoV Urbani / Binding of serum 6 to linear peptides of protein M of SARS-CoV Urbani / Binding of serum 37 to linear peptides of protein M of SARS-CoV Urbani / Binding of serum 6 to looped/cyclic peptides of protein M of SARS-CoV Urbani / Binding of serum 37 to looped/cyclic peptides of protein M of SARS-CoV Urbani / Binding of serum 6 to linear peptides of protein X3 of SARS-CoV Urbani / Binding of serum 37 to linear peptides of protein X3 of SARS-CoV Urbani / Binding of serum 37 to looped/cyclic peptides of protein X3 of SARS-CoV Urbani / Binding of serum 6 to linear peptides of protein X4 of SARS-CoV Urbani / Binding of serum 37 to linear peptides of protein X4 of SARS-CoV Urbani / Binding of serum 37 to looped/cyclic peptides of protein X4 of SARS-CoV Urbani / Binding of serum 6 to linear peptides of protein X5 of SARS-CoV Urbani / Binding of serum 37 to linear peptides of protein X5 of SARS-CoV Urbani / Binding of serum 37 to looped/cyclic peptides of protein X5 of SARS-CoV Urbani / Binding of serum 6 to linear peptides of protein N of SARS-CoV Urbani / Binding of serum 37 to linear peptides of protein N of SARS-CoV Urbani / Binding of serum 6 to linear peptide (PEPSCAN-ELISA) / Binding of serum 1a to looped/cyclic peptides of protein N of SARS-CoV Urbani / Binding of serum 1b to looped/cyclic peptides of protein N of SARS-CoV Urbani / Binding of serum 2 to looped/cyclic peptides of protein N of SARS-CoV Urbani / Binding of serum 6 to looped/cyclic peptides of protein N of SARS-CoV Urbani / Binding of serum 37 to looped/cyclic peptides of protein N of SARS-CoV Urbani / Binding of serum 62 to looped/cyclic peptides of protein N of SARS-CoV Urbani / Binding of serum London to looped/cyclic peptides of protein N of SARS-CoV Urbani / Binding of serum SARS-green to looped/cyclic peptides of protein N of SARS-CoV Urbani: unit not given here

ESELVIGAVIIRGHL
Rabbit serum linear peptides [1]: 0.4 | Rabbit serum looped peptides [1]: 0.1 | Binding of Control Serum Blood-Bank to Looped peptides of the protein M of SARS-CoV Urbani [2]: 0.7 | Binding of Control serum Blood-bank to linear peptides of the protein M of SARS-CoV Urbani [2]: 0.6 | Binding of Control serum LUMC to linear peptides of the protein M of SARS-CoV Urbani [2]: 0.4 | Binding of Control serum LUMC to looped peptides of the protein M of SARS-CoV Urbani [2]: 0.5 | Binding of serum 1a to linear peptides of protein M of SARS-CoV Urbani [3]: 0.8 | Binding of serum 1a to looped/cyclic peptides of protein M of SARS-CoV Urbani [3]: 0.6 | Binding of serum 1b to linear peptides of protein M of SARS-CoV Urbani [3]: 0.6 | Binding of serum 1b to looped/cyclic peptides of protein M of SARS-CoV Urbani [3]: 0.5 | Binding of serum 2 to linear peptides of protein M of SARS-CoV Urbani [3]: 0.8 | Binding of serum 2 to looped/cyclic peptides of protein M of SARS-CoV Urbani [3]: 0.6 | Binding of serum 6 to linear peptides of protein M of SARS-CoV Urbani [3]: 0.3 | Binding of serum 6 to looped/cyclic peptides of protein M of SARS-CoV Urbani [3]: 0.5 | Binding of serum 37 to linear peptides of protein M of SARS-CoV Urbani [3]: 0.9 | Binding of serum 37 to looped/cyclic peptides of protein M of SARS-CoV Urbani [3]: 0.5 | Binding of serum 62 to linear peptides of protein M of SARS-CoV Urbani [3]: 0.8 | Binding of serum 62 to looped/cyclic peptides of protein M of SARS-CoV Urbani [3]: 0.5 | Binding of serum London to linear peptides of protein M of SARS-CoV Urbani [3]: 0.3 | Binding of serum London to looped/cyclic peptides of protein M of SARS-CoV Urbani [3]: 0.2 | Binding of serum SARS-green to linear peptides of protein M of SARS-CoV Urbani [3]: 0.3 | Binding of serum SARS-green to looped/cyclic peptides of protein M of SARS-CoV Urbani [3]: 0.2 | Binding of serum SARS-yellow to linear peptides of protein M of SARS-CoV Urbani [3]: 0.1 | Binding of serum SARS-yellow to looped/cyclic peptides of protein M of SARS-CoV Urbani [3]: 0.4

ESTQITTDTGIENAT
Binding of a rabbit serum to linear peptides [1]: 0.1 | Binding of a rabbit serum to looped peptides [1]: 0.5 | Binding of Control Serum Blood-Bank to Looped peptides [2]: 0.4 | Binding of Control serum Blood-bank to linear peptides [2]: 0.4 | Binding of Control serum LUMC to linear peptides [2]: 0.5 | Binding of Control serum LUMC to looped peptides [2]: 0.4 | Binding of serum 1a to linear peptides of protein X1 of SARS-CoV Urbani [3]: 0.6 | Binding of serum 1a to looped/cyclic peptides of protein X1 of SARS-CoV Urbani [3]: 0.4 | Binding of serum 1b to linear peptides of protein X1 of SARS-CoV Urbani [3]: 0.4 | Binding of serum 1b to looped/cyclic peptides of protein X1 of SARS-CoV Urbani [3]: 0.2 | Binding of serum 2 to linear peptides of protein X1 of SARS-CoV Urbani [3]: 0.3 | Binding of serum 2 to looped/cyclic peptides of protein X1 of SARS-CoV Urbani [3]: 0.1 | Binding of serum 6 to linear peptides of protein X1 of SARS-CoV Urbani [3]: 0.4 | Binding of serum 6 to looped/cyclic peptides of protein X1 of SARS-CoV Urbani [3]: 0.2 | Binding of serum 37 to linear peptides of protein X1 of SARS-CoV Urbani [3]: 0.5 | Binding of serum 37 to looped/cyclic peptides of protein X1 of SARS-CoV Urbani [3]: 0.3 | Binding of serum 62 to linear peptides of protein X1 of SARS-CoV Urbani [3]: 0.5 | Binding of serum 62 to looped/cyclic peptides of protein X1 of SARS-CoV Urbani [3]: 0.3 | Binding of serum London to linear peptides of protein X1 of SARS-CoV Urbani [3]: 0.2 | Binding of serum London to looped/cyclic peptides of protein X1 of SARS-CoV Urbani [3]: 0.2 | Binding of serum SARS-green to linear peptides of protein X1 of SARS-CoV Urbani [3]: 0.2 | Binding of serum SARS-green to looped/cyclic peptides of protein X1 of SARS-CoV Urbani [3]: 0.1 | Binding of serum SARS-yellow to linear peptides of protein X1 of SARS-CoV Urbani [3]: 0.1 | Binding of serum SARS-yellow to looped/cyclic peptides of protein X1 of SARS-CoV Urbani [3]: 0.3

EVQQELYSPLFLIVA
Rabbit serum linear peptides [1]: 0.5 | Rabbit serum looped peptides [1]: 0.5 | Binding of Control Serum Blood-Bank to Looped peptides [2]: 0.7 | Binding of Control serum Blood-bank to linear peptides [2]: 0.5 | Binding of Control serum LUMC to linear peptides [2]: 0.5 | Binding of Control serum LUMC to looped peptides [2]: 0.8 | Binding of serum 1a to linear peptides of protein X4 of SARS-CoV Urbani [3]: 0.7 | Binding of serum 1a to looped/cyclic peptides of protein X4 of SARS-CoV Urbani [3]: 0.7 | Binding of serum 1b to linear peptides of protein X4 of SARS-CoV Urbani [3]: 0.6 | Binding of serum 1b to looped/cyclic peptides of protein X4 of SARS-CoV Urbani [3]: 0.6 | Binding of serum 2 to linear peptides of protein X4 of SARS-CoV Urbani [3]: 0.4 | Binding of serum 2 to looped/cyclic peptides of protein X4 of SARS-CoV Urbani [3]: 0.6 | Binding of serum 6 to linear peptides of protein X4 of SARS-CoV Urbani [3]: 0.9 | Binding of serum 6 to looped/cyclic peptides of protein X4 of SARS-CoV Urbani [3]: 0.5 | Binding of serum 37 to linear peptides of protein X4 of SARS-CoV Urbani [3]: 0.8 | Binding of serum 37 to looped/cyclic peptides of protein X4 of SARS-CoV Urbani [3]: 0.7 | Binding of serum 62 to linear peptides of protein X4 of SARS-CoV Urbani [3]: 0.7 | Binding of serum 62 to looped/cyclic peptides of protein X4 of SARS-CoV Urbani [3]: 0.6 | Binding of serum London to linear peptides of protein X4 of SARS-CoV Urbani [3]: 1.0 | Binding of serum London to looped/cyclic peptides of protein X4 of SARS-CoV Urbani [3]: 0.3 | Binding of serum SARS-green to linear peptides of protein X4 of SARS-CoV Urbani [3]: 0.8 | Binding of serum SARS-green to looped/cyclic peptides of protein X4 of SARS-CoV Urbani [3]: 0.3 | Binding of serum SARS-yellow to linear peptides of protein X4 of SARS-CoV Urbani [3]: 0.6 | Binding of serum SARS-yellow to looped/cyclic peptides of protein X4 of SARS-CoV Urbani [3]: 0.9 | Recognition of the peptide by sera of SARS-CoV infected individuals, and form (linear, looped/cyclic) in which it is recognized [3]: recognized in looped/cyclic form
